Experimental findings from patent publication US11789012B2, “Cell death biomarker” (UCL Business PLC, priority 2016, dated 2023) are described below.

Assay [1] relates to MPM cell lines. Nature of the assay: Combination drug screen with rTRAIL as anchor drug. The assay is classed as cell-based, Human. The conditions noted are these: otherwise resistant cells; delta AUC synergy metric. On the procedure:
FIG. 7A is a volcano plot showing drug-genome interactions when rTRAIL was used as an anchor drug in combination with the library of 94 single agent compounds. Synergy was described using delta AUC metric. FIGS. 7B & 7C are graphs showing the effect of rTRAIL on cell viability of MPM cells in the presence of LCL161. TRAIL resistant MPM cells were treated with either 0-1000 ng/ml of TRAIL alone or a combination of 5 μM LCL161 and 0-1000 ng/ml of TRAIL for 24 hours and cell death was quantified by Annexin V/DAPI assay. FIG. 7D is a graph showing the effect of rTRAIL on cell viability of cells in the presence of the IAP inhibitor, LCL161. BAP1-transduced or BAP1 C91A-transduced H226 cells were treated either with 0-1000 ng/ml of TRAIL alone or combination of 5 μM LCL161 and 0-1000 ng/ml of TRAIL for 24 hours and cell death was quantified by Annexin V/DAPI assay.
Manual “single dose” combination screening was undertaken using 96 well formats. Cells were plated on day 1 in previously optimized seeding densities in 180 μl if media. On day 2 20 μl of a 10× concentration of […] was added. Cells were then allowed to grow for 72 hrs or 6 days and fixed at the end of the assay. Drug wells were compared to DMSO treated control wells.
Single agent high throughput 5 point viability screening was undertaken in 384 well formats using robotic liquid handling with fixing with 4% paraformaldehyde and staining for viability with Syto60 nucleic acid dye (Invitrogen) (see below).
A binary event matrix was compiled for the cell lines in the mesothelioma screen by aggregating copy number and exome data and this was used as input classifiers for genomic correlation. Data from this therapeutic screen was then analysed using a Multivariate Analysis of Variance (MANOVA) to annotate the sensitizing effect of genotype on dose response.

Assay [2] has as its system NCI-H226. Nature of the assay: Annexin V/DAPI cell death assay, H226 parental and BAP1-transduced lines. Type of assay: cell-based, Human. The conditions noted are these: 100 ng/ml, 24 hours; untransduced, BAP1-expressing and catalytically dead BAP1-expressing H226. On the procedure:
FIG. 5A is an immunoblot for BAP1 protein in BAP1 null mesothelioma lines following transfection with empty vector and BAP1 expression vector. […] FIG. 5C is a graph showing the effect of rTRAIL on cell viability of an untransduced H226 cell line, a BAP1 (transduced) cell line, and a H226 cell line with the NLS deleted.
Untransduced BAP1-negative H226 cells, BAP1-expressing and catalytically dead BAP1-expressing H226 cells were treated with 100 ng/ml of FASL, TRAIL and TNF-alpha for 24 hours and cell death was quantified by Annexin V/DAPI assay. *p<0.05 indicating significant difference between untransduced H226 cells H226 BAP1 expressing cells. NS no significant difference between untransduced H226 cells and BAP1 C91A transduced cells. #p<0.05 indicating significant difference between untransduced H226 cells and BAP1 C91A transduced cells.
Adherent mesothelioma cell lines were plated in a 96 well plate at approximately 10000 cells per well. Cells were plated and given 1 day to adhere at which time drug was added. After 48 hrs media, including floating cells, was collected from each well. The remaining adherent cells were washed with PBS and mobilised with 0.05% trypsin in EDTA. All cells were collected into tubes containing the previously removed media and pelleted by centrifugation (300 g, 5 minutes). Cells were then re-suspended in 1× Annexin V binding buffer with 10 μl/1 ml concentration of Annexin V-647 antibody (Invitrogen) and incubated for 15 minutes at room temperature. DAPI ([…]) was then added to each sample before flow cytometry analysis as below. Annexin V−/DAPI− cells were judged to be viable, AnnexinV+/DAPI− cells were considered to be undergoing apoptosis (early apoptotic phase), and Annexin V+/DAPI+ cells were considered late apoptotic or necrotic, and recorded as dead.

As for `CNC(=O)c1cc(Oc2ccc(NC(=O)Nc3ccc(Cl)c(C(F)(F)F)c3)cc2)ccn1` [sorafenib], the “effect on DRL-induced apoptosis in combination with rTRAIL” value in assay [1] is reported as “increase the efficacy of DRL-induced apoptosis”.
Turning to TNFα, the “sensitivity of H226 cells to cell death-inducing ligand, dependence on BAP1 catalytic domain” value in assay [2] is on record as “regulates the sensitivity”.
Turning to `COc1ccc(C(=O)CC2(O)C(=O)Nc3c(Cl)ccc(Cl)c32)cc1` (centres unmarked) [YK-4279], the “effect on DRL-induced apoptosis in combination with rTRAIL” value in assay [1] was “increase the efficacy of DRL-induced apoptosis”.
Still for that read-out and setting: as for `CN[C@@H](C)C(=O)N[C@H](C(=O)N1CCC[C@H]1c1nc(C(=O)c2ccc(F)cc2)cs1)C1CCCCC1` [LCL161], the entry is “increase the efficacy of DRL-induced apoptosis”.

B1: FASL: cell death-inducing ligand, death receptor ligand (protein, UniProt P48023 130-281, looked up)
Tumor necrosis factor ligand …: QIGHPSPPPEKKELRKVAHLTGKSNSRSMPLEWEDTYGIVLLSGVKYKKGGLVINETGLYFVYSKVYFRGQSCNNLPLSHKVYMRNSKYPQDLVMMEGKMMSYCTTGQMWARSSYLGAVFNLTSADHLYVNVSELSLVNFEESQTFFGLYKL
As for B1, in assay [2], the “sensitivity of H226 cells to cell death-inducing ligand, dependence on BAP1 catalytic domain” value was “regulates the sensitivity”.
